ChEMBL document CHEMBL4177611, “Discovery of aminocyclohexene analogues as selective and orally bioavailable hNav1.7 inhibitors for analgesia” (Bioorg Med Chem Lett, 2017)

Key:
[1] = Drug metabolism in po dosed rat plasma assessed as deethylation by measuring 4-(((1R,6R)-6-amino-2-(4-fluorophenyl)cyclohex-2-enyl)methoxy)-5-chloro-2-fluoro-N-(thiazol-4-yl)benzenesulfonamide metabolite formation; assay type: ADME, organism-based; details: in vivo
[2] = Drug metabolism in human liver microsomes assessed as dealkylation by measuring M1 metabolite formation at 10 uM measured up to 60 mins in presence of NADPH by LC-MS analysis relative to total metabolite peak area; assay type: ADME, microsome; details: 1 h
[3] = Intrinsic clearance in human liver microsomes at 1 uM after 60 mins in presence of NADPH by LC-MS/MS analysis; assay type: ADME, microsome; details: read-out: CLH
Cytochrome P450 2C19 = Cytochrome P450 2C19 (Homo sapiens, UniProt P33261)
Chain of Cytochrome P450 2C19 (P33261 whole entry): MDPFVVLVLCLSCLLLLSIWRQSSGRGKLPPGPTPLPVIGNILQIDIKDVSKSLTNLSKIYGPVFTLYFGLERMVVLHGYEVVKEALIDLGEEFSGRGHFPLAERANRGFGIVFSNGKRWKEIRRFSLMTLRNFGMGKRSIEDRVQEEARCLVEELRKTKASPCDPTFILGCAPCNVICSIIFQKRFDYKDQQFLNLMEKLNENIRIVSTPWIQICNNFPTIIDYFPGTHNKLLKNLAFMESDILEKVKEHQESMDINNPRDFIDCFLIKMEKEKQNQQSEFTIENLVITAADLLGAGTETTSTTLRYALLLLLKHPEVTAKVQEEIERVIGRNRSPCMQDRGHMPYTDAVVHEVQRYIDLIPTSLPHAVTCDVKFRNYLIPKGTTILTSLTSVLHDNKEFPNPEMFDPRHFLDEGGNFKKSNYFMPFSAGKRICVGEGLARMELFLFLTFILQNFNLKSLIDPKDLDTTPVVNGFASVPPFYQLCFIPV

[4] = Plasma concentration in Sprague-Dawley rat spinal nerve ligation model at 100 mg/kg administered as single dose via oral gavage measured after 2 hrs by LC-MS/MS analysis; assay type: ADME, organism-based
[5] = AUC in Sprague-Dawley rat at 10 mg/kg administered as single dose via oral gavage by LC-MS/MS analysis; assay type: ADME, organism-based; details: in vivo
[6] = Plasma concentration in Sprague-Dawley rat spinal nerve ligation model at 30 mg/kg administered as single dose via oral gavage measured after 1 hr by LC-MS/MS analysis; assay type: ADME, organism-based
[7] = Half life in Sprague-Dawley rat at 3 mg/kg administered as single iv bolus by LC-MS/MS analysis; assay type: ADME, organism-based; details: in vivo
Rattus norvegicus = assay: Unbound AUC (0 to last) in Sprague-Dawley rat at 10 mg/kg administered as single dose via oral gavage by LC-MS/MS analysis; assay type: ADME, organism-based; details: in vivo
[8] = Unbound plasma concentration in Sprague-Dawley rat spinal nerve ligation model at 100 mg/kg administered as single dose via oral gavage measured after 1 hr by LC-MS/MS analysis; assay type: ADME, organism-based; details: in vivo
[9] = biological target: Voltage-gated inwardly rectifying potassium channel KCNH2 (Homo sapiens, UniProt Q12809)
[10] = Drug metabolism in Sprague-Dawley rat dorsal root ganglion assessed as 4-(((1R,6R)-6-amino-2-(4-fluorophenyl)cyclohex-2-enyl)methoxy)-5-chloro-2-fluoro-N-(thiazol-4-yl)benzenesulfonamide formation at 100 mg/kg, ig measured after 1.5 hrs by LC-MS/MS analysis; assay type: ADME, organism-based; details: in vivo, po
[11] = AUC (0 to last) in Sprague-Dawley rat at 3 mg/kg administered as single iv bolus by LC-MS/MS analysis; assay type: ADME, organism-based; parameters: dose 3 mg/kg, route intravenous, time 0 - last; details: in vivo
[12] = Metabolic stability in rat liver microsomes assessed as parent compound remaining at 10 uM measured up to 60 mins in presence of NADPH by LC-MS analysis; assay type: ADME, microsome; details: read-out: Stability
[13] = biological target: Sodium channel protein type 9 subunit alpha (Homo sapiens, UniProt Q15858); assay: Inhibition of human Nav1.7 expressed in CHO-K1 cells at -120 mV holding potential incubated over 5 mins measured at 15 secs interval by Qpatch clamp assay; assay type: cell-based
Chain of Sodium channel protein type 9 subunit alpha (Q15858 whole entry): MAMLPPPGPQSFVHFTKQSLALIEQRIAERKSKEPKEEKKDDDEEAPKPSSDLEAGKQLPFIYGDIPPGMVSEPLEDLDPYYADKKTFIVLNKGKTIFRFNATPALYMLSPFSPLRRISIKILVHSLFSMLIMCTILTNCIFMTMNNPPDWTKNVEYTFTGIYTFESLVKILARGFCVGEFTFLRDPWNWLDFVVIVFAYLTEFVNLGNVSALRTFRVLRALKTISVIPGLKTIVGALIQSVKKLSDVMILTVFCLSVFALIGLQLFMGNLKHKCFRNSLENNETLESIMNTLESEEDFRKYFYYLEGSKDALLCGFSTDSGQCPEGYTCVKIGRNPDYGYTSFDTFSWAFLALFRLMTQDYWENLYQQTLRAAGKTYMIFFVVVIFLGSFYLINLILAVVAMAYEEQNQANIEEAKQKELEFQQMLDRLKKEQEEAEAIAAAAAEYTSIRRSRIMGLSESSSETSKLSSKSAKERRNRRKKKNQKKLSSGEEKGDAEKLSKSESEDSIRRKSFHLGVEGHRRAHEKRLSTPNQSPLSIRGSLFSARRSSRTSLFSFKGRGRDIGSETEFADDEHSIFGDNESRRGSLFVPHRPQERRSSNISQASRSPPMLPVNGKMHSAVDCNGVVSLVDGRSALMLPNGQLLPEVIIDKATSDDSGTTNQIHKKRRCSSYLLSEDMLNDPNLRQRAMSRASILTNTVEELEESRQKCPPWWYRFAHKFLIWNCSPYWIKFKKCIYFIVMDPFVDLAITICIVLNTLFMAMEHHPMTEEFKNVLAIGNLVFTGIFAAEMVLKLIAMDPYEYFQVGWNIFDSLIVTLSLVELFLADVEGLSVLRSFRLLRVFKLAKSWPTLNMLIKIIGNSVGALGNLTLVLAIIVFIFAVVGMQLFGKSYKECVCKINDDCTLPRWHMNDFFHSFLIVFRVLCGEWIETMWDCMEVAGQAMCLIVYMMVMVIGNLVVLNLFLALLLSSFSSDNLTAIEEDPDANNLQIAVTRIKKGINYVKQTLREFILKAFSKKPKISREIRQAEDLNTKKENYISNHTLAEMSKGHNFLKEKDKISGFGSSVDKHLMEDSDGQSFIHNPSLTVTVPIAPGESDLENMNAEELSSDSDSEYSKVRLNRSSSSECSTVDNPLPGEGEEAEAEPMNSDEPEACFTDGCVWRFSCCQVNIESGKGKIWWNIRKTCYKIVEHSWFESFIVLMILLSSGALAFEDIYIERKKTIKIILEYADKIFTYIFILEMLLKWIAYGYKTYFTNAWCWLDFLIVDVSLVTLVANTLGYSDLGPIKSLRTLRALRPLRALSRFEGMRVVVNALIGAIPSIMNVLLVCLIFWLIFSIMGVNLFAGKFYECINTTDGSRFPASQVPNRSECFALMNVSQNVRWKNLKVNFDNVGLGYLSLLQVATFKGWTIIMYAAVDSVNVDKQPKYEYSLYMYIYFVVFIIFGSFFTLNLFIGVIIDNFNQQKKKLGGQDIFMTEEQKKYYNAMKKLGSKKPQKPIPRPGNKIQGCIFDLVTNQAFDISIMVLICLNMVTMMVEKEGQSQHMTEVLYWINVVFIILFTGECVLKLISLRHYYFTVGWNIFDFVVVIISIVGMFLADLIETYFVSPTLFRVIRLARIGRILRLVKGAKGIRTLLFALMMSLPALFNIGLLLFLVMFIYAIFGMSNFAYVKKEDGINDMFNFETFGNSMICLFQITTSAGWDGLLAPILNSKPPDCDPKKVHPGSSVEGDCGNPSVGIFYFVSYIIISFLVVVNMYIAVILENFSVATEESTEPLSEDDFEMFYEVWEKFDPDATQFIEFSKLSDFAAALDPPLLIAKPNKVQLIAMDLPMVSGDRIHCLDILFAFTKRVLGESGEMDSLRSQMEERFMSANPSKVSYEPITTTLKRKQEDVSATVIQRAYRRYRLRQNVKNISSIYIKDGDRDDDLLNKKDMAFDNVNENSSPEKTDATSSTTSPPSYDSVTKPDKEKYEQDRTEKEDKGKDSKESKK

[14] = Drug metabolism in human liver microsomes assessed as oxygenation by measuring M3 metabolite formation at 10 uM measured up to 60 mins in presence of NADPH by LC-MS analysis relative to total metabolite peak area; assay type: ADME, microsome; details: 1 h
Cytochrome P450 2D6 = Cytochrome P450 2D6 (Homo sapiens, UniProt P10635)
Chain of Cytochrome P450 2D6 (P10635 whole entry): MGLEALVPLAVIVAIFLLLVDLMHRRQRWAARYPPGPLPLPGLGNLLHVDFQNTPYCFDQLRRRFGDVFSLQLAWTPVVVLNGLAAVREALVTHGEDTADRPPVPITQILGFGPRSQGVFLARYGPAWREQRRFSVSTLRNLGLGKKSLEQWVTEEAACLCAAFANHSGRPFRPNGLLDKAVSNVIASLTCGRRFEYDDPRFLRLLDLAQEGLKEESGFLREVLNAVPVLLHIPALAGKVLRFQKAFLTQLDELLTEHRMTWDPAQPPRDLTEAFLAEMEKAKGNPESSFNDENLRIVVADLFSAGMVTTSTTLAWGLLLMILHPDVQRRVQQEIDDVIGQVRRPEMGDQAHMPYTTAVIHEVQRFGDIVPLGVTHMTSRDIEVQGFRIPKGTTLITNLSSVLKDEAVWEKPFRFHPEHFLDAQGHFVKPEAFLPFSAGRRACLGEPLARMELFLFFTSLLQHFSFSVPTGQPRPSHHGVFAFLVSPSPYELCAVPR

[15] = Dissociation constant, pKa of the compound; assay type: physicochemical
[16] = Metabolic stability in dog liver microsomes assessed as parent compound remaining at 10 uM measured up to 60 mins in presence of NADPH by LC-MS analysis; assay type: ADME, Canis lupus familiaris, microsome; details: read-out: Stability
[17] = Clearance in Sprague-Dawley rat administered as single iv bolus by LC-MS/MS analysis; assay type: ADME, organism-based; details: in vivo
[18] = Plasma concentration in Sprague-Dawley rat spinal nerve ligation model at 30 mg/kg administered as single dose via oral gavage measured after 4 hrs by LC-MS/MS analysis; assay type: ADME, organism-based
[19] = Plasma concentration in Sprague-Dawley rat spinal nerve ligation model at 30 mg/kg administered as single dose via oral gavage measured after 2 hrs by LC-MS/MS analysis; assay type: ADME, organism-based
[20] = Fraction unbound in rat plasma at 2 uM after 4 hrs by LC-MS/MS analysis; assay type: ADME, cell-free
[21] = Drug uptake in Sprague-Dawley rat dorsal root ganglion at 100 mg/kg, ig measured after 1.5 hrs by LC-MS/MS analysis; assay type: ADME, organism-based; details: in vivo, po
[22] = Unbound plasma concentration in Sprague-Dawley rat spinal nerve ligation model at 100 mg/kg administered as single dose via oral gavage measured after 2 hrs by LC-MS/MS analysis; assay type: ADME, organism-based; details: in vivo
Cytochrome P450 3A4 = Cytochrome P450 3A4 (Homo sapiens, UniProt P08684)
Chain of Cytochrome P450 3A4 (P08684 whole entry): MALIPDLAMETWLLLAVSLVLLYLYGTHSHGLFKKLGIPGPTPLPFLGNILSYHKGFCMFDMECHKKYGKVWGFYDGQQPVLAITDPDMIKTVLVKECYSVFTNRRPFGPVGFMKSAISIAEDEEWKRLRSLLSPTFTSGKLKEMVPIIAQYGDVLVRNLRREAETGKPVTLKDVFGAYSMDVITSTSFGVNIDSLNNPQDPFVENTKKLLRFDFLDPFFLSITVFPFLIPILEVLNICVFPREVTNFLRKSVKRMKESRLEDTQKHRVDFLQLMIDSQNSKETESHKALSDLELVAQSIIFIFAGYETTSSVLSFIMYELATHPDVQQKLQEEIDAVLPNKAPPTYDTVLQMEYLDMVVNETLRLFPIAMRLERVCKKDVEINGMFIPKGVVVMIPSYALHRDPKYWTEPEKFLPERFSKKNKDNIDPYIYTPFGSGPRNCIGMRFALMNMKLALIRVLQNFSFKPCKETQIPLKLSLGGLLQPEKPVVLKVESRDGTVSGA

Cytochrome P450 2C9 = Cytochrome P450 2C9 (Homo sapiens, UniProt P11712)
Chain of Cytochrome P450 2C9 (P11712 whole entry): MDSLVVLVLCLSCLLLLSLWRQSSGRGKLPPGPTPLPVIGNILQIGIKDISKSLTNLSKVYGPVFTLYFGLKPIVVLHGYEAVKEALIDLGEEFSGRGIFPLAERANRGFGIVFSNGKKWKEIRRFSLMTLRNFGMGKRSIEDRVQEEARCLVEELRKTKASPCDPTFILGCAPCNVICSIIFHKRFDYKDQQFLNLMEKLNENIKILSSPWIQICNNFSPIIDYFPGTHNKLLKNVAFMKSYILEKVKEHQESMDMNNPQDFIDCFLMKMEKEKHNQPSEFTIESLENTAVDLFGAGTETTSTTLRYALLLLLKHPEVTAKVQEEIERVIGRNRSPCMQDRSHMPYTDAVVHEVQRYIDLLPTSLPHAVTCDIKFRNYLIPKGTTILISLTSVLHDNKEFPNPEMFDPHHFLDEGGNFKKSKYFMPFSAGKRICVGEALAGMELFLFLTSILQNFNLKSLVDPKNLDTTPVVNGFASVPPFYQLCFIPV

[23] = Unbound plasma concentration in Sprague-Dawley rat spinal nerve ligation model at 30 mg/kg administered as single dose via oral gavage measured after 1 hr by LC-MS/MS analysis; assay type: ADME, organism-based; details: in vivo
physchem = details: buffer, pH 7.4
[24] = Tmax in Sprague-Dawley rat at 10 mg/kg administered as single dose via oral gavage by LC-MS/MS analysis; assay type: ADME, organism-based; details: in vivo
[25] = Unbound plasma concentration in Sprague-Dawley rat spinal nerve ligation model at 30 mg/kg administered as single dose via oral gavage measured after 2 hrs by LC-MS/MS analysis; assay type: ADME, organism-based; details: in vivo
[26] = Intrinsic clearance in rat liver microsomes at 1 uM after 60 mins in presence of NADPH by LC-MS/MS analysis; assay type: ADME, microsome; details: read-out: CLH
[27] = Volume of distribution at steady state in Sprague-Dawley rat administered as single iv bolus by LC-MS/MS analysis; assay type: ADME, organism-based; details: in vivo, read-out: Vdss
[28] = Metabolic stability in human liver microsomes assessed as parent compound remaining at 10 uM measured up to 60 mins in presence of NADPH by LC-MS analysis; assay type: ADME, microsome; details: read-out: Stability

## CCN[C@@H]1CCC=C(c2ccc(F)cc2)[C@H]1COc1cc(F)c(S(=O)(=O)Nc2cscn2)cc1Cl.Cl
[1]
  Drug metabolism: Metabolite_Detected
[2]
  Drug metabolism: Metabolite_Detected
[3]
  CLint scaled at 1 µM: 66.9 mL/min/kg
Cytochrome P450 2C19
  IC50: > 50 µM
[4]
  concentration at 2 h: 7500 nM
[5]
  AUC: 3.04 µM·h
[6]
  concentration at 1 h: 2010 nM
[7]
  half-life: 1.56 h
Rattus norvegicus
  fAUClast: 0.106 µM·h
[8]
  Cp(f): 297 nM
[9]
  IC50: 4.4 µM
[10]
  Drug metabolism: 0.5 µM/g
[11]
  AUC(0-t): 2.44 µM·h
[12]
  remaining at 1 h, 10 µM: 49.7%
[13]
  IC50: 0.034 µM
[14]
  Drug metabolism: Metabolite_Detected
Cytochrome P450 2D6
  IC50: 22 µM
[15]
  pKa: 6.34 to 9.35
[16]
  remaining at 1 h, 10 µM: 81.2%
[17]
  clearance: 37 mL/min/kg
[18]
  concentration at 4 h: 1530 nM
[19]
  concentration at 2 h: 2160 nM
[20]
  fraction unbound at 4 h, 2 µM: 0.035
[21]
  Drug uptake: 2.6 µM/g
[22]
  Cp(f): 262 nM
Cytochrome P450 3A4
  IC50: 43.4 µM
Cytochrome P450 2C9
  IC50: 5.7 µM
[23]
  Cp(f): 70 nM
physchem
  logD: 1.79
[24]
  Tmax: 1.67 h
[25]
  Cp(f): 75 nM
[26]
  CLint scaled at 1 µM: 137 mL/min/kg
[27]
  Vd: 4.65 L/kg
[28]
  remaining at 1 h, 10 µM: 37.6%
